Assay results published in article PMC4893694, “Identification of potent maturation inhibitors against HIV-1 clade C” (Scientific Reports, 2016).

Columns and labels:
[1] = Cytotoxicity assay (CellTitre-Blue) in HUT-R5; type: cell-based; conditions: human, HUT-R5 cells; HUT-R5, 4 days
Experimental: (§1) Cytotoxicity assays were performed using the CellTitre-Blue Cell Viability Assay kit (Promega, USA) as per manufacturer’s recommendations. HEK-293T and HUT-R5 cell lines were maintained in the presence of serial dilutions of MIs for 4 days and treated with CellTitre-Blue reagent for 4 h at 37 °C. The fluorescent signals were recorded at 530/25excitation and 590/35emission using BioTek microplate reader.

[2] = Cytotoxicity assay (CellTitre-Blue) in HEK-293T; type: cell-based; conditions: human, HEK-293T cells
Experimental: as §1

[3] = test system: HIV-1 clade C K3016 virus; experiment: Antiviral assay, spreading HIV-1 infection in HUT-R5 T-cell line (p24 reduction); type: cell-based; conditions: Human immunodeficiency virus 1, T-cell, 192 h; HUT-R5 cells infected with K3016, 8 days, HIV-1 p24 in supernatant; representative of two independent experiments
Experimental: HUT-R5 cells were infected with K3016 virus and cultured for eight days in the presence of serial dilutions of each compound. Antiviral activity was monitored by reduction in HIV-1 p24 levels in culture supernatants.
HUT-R5 cells were infected with normalized HIV-1 clade C K3016 virus stocks at 37 °C for 1 h. Cells were then maintained for 8 days in the presence of serial dilutions of MIs. After 8 days, the HIV-1 p24 concentration in the virus supernatants was measured to monitor virus replication.

[4] = test system: HIV-1 clade C molecular clone K3016 (CA-SP1 processing); type: cell-based; conditions: for activity (CA-SP1 accumulation): K3016, 10 nM; for accumulation of the CA-SP1 processing intermediate over a range of doses: K3016, 2–50 nM
Experimental: (§2) Viral supernatants were pelleted and separated on SDS-PAGE followed by western blotting using HIV-IgG antibody.
(§3) 24 h post-transfection, the culture medium was replaced with fresh DMEM and incubated for another 2 h. MIs were maintained in the culture throughout transfection. […] The clarified supernatants were filtered (pore size 0.45 μm filter disc) to remove residual cellular contaminants. For determination of viral infectivity, the unconcentrated virus was used to infect TZM-bl cells.
(§4) To measure accumulation of CA-SP1, immunoblot analysis of virus-associated proteins was performed. The virus pellet was resuspended in radioimmunoprecipitation assay (RIPA) buffer (50 mM Tris-HCl pH 8.0, 150 mM sodium chloride, 1.0% NP-40, 0.5% sodium deoxycholate, 0.1% SDS) containing 1 × protease inhibitor cocktail (Roche, Germany). […] The proteins were visualized by enhanced chemiluminescence (Pierce, USA) and the bands were quantified using ImageJ software (http://imagej.nih.gov/ij/).

[5] = test system: HIV-1 clade C molecular clone IndieC1 (CA-SP1 processing); conditions: HEK-293T transfected with IndieC1, increasing concentrations 0.1–5.0 μM, western blot
Experimental: as §2, §3, §4

[6] = test system: HIV-1 clade C molecular clone ZM247 (CA-SP1 processing); conditions: HEK-293T transfected with ZM247, increasing concentrations 0.1–5.0 μM, western blot
Experimental: as §2, §3, §4

[7] = test system: HIV-1 clade B molecular clone NL4-3 (CA-SP1 processing); conditions: HEK-293T transfected with NL4-3, increasing concentrations 0.1–5.0 μM, western blot
Experimental: as §2, §3, §4

| Structure (SMILES) | CC50 at 4 days [1] [nM] | CC50 at 4 days [2] [nM] | IC50 [3] [nM] | activity (CA-SP1 accumulation) [4] [%] | accumulation of the CA-SP1 processing intermediate over a range of doses [4] | accumulation of p25 (CA-SP1) [5] | accumulation of p25 (CA-SP1) [6] | accumulation of p25 (CA-SP1) [7] | accumulation of p25 (CA-SP1) ([4]; HEK-293T transfected with K3016, increasing concentrations 0.1–5.0 μM, western blot) |
| --- | --- | --- | --- | --- | --- | --- | --- | --- | --- |
| C=C(C)C1CCC2(CCNCCN(C)C)CCC3(C)C(CCC4C5(C)CCC(OC(=O)CC(C)(C)CC(=O)O)C(C)(C)C5CCC43C)C12 (stereo not shown) [Compound 7m] | > 1000 | > 1000 | 1.4 | ~40 | dose-dependent accumulation |  |  |  |  |
| C=C(C)C1CCC2(CCNC3CCN(C)CC3)CCC3(C)C(CCC4C5(C)CCC(OC(=O)CC(C)(C)CC(=O)O)C(C)(C)C5CCC43C)C12 (stereo not shown) [Compound 7j] | > 1000 | > 1000 | 5.9 |  |  |  |  |  |  |
| C=C(C)C1CCC2(CCNC3CCN(CC)CC3)CCC3(C)C(CCC4C5(C)CCC(OC(=O)CC(C)(C)CC(=O)O)C(C)(C)C5CCC43C)C12 (stereo not shown) [Compound 7r] | > 1000 | > 1000 | 1.5 | ~40 | dose-dependent accumulation |  |  |  |  |
| C=C(C)C1CCC2(CCNCCCN3CCCC3)CCC3(C)C(CCC4C5(C)CCC(OC(=O)CC(C)(C)CC(=O)O)C(C)(C)C5CCC43C)C12 (stereo not shown) [Compound 7h] | > 1000 | > 1000 | 11.3 |  |  |  |  |  |  |
| C=C(C)[C@@H]1CC[C@]2(C(=O)O)CC[C@]3(C)[C@H](CC[C@@H]4[C@@]5(C)CC[C@H](OC(=O)CC(C)(C)C(=O)O)C(C)(C)[C@@H]5CC[C@]43C)[C@@H]12 [BVM, 3-0-(3′-3′-dimethylsuccinyl) betulinic acid, reference compound] | > 1000 | > 5000 | > 1000 |  |  | resistant | resistant | dose-dependent accumulation of p25 | resistant |
| C=C(C)C1CCC2(CCNC3CCN(CCO)CC3)CCC3(C)C(CCC4C5(C)CCC(OC(=O)CC(C)(C)CC(=O)O)C(C)(C)C5CCC43C)C12 (stereo not shown) [Compound 7s] | > 1000 | > 1000 | 1.3 | ~40 | dose-dependent accumulation |  |  |  |  |
